22 molecules from patent US8263605B2, “Modulators of muscarinic receptors” (Vertex Pharmaceutical Incorporated, priority 2006, dated 2012) can be followed below.

One experiment deals with T1, M4 muscarinic receptor (Homo sapiens, UniProt P08173).
T1 construct: expressed in transfected cells; host or cells: CHO (M4-CHO)
T1 sequence (P08173 1-479): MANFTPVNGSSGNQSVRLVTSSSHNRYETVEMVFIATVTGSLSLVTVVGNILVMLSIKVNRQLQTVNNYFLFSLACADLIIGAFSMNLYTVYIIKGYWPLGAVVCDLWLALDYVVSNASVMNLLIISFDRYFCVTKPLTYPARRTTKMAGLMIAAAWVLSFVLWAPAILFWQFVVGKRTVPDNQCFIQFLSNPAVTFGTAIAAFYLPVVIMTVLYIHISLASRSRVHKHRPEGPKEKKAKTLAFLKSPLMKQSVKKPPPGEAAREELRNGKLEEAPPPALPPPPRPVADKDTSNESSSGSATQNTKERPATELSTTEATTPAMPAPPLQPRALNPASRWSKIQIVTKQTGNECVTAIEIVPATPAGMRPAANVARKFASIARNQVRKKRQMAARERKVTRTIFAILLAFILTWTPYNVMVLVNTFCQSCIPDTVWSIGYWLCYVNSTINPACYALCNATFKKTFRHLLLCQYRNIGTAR
Kind of experiment: Functional mobilization of intracellular calcium (FLIPR), M4-CHO cells. The experiment is classed as cell-based. The settings on record: for Emax: 100% efficacy is the maximum response obtained with the Carbachol control; for M4 Activity: CHO cells expressing M4, calcium mobilization. The gist of the method:
(§1)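 Recombinant CHO cells loaded with Fluo-3 AM or Calcium 3 dye; fluorescence recorded 60 s on FLIPR in pH 7.4 buffer with 1 mM probenecid, 0.5% DMSO. Agonist mode: compound alone; antagonist mode: 15 min preincubation (or co-application) then carbachol at EC80. Efficacy relative to maximal carbachol response.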
Background: A change in cytosolic calcium serves as a functional read-out for many receptors and channels.

In a further experiment the target is T2, M1 muscarinic receptor (Homo sapiens, UniProt P11229).
T2 construct: expressed in transfected cells; host or cells: CHO (M1-CHO)
T2 sequence (P11229 1-460): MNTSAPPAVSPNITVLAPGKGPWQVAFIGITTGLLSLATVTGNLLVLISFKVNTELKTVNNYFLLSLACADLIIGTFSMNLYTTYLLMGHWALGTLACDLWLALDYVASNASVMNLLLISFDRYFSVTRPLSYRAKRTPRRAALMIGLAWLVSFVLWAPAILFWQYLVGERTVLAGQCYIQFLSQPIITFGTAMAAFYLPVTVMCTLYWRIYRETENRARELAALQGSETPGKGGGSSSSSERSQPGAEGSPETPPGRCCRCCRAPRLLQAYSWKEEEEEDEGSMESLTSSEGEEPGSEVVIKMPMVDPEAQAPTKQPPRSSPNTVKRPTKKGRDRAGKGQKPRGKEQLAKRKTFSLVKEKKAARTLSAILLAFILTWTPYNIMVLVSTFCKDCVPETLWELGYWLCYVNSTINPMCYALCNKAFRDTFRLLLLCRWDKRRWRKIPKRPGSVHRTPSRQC
Kind of experiment: Functional mobilization of intracellular calcium (FLIPR), M1-CHO cells. Format: cell-based. The conditions noted are these: for Emax: 100% efficacy is the maximum response obtained with the Carbachol control; for M1 Activity: CHO cells expressing M1, calcium mobilization. The gist of the method:
as §1

As a reminder, the Emax is the maximal effect, on the per cent scale that the assay sets.

Where only a bound is given, the exact number is not on record here.

`CN(C)C(=O)N1CC2(CCN(C3CCN(c4nccs4)CC3)CC2)c2ccccc21` [compound 90]: at M4 muscarinic receptor, the Emax lay within 25 to 100% and the “M4 Activity” value is recorded as “++ (activity was measured to be from 2.0 μM to 10.0 μM)”. In addition, on M1 muscarinic receptor, the Emax lay in the range of 25 to 100% and the “M1 Activity” value is “++ (activity was measured to be from 2.0 μM to 10.0 μM)”.

In the case of `CCC#CCOC(=O)N1CC[C@@H](CN2CCC3(CC2)CN(C(=O)N(C)C)c2ccccc23)C1` [compound 99], on M4 muscarinic receptor, the Emax was above 100% and the “M4 Activity” value was “+++ (activity was measured to be less than 2.0 μM)”. At M1 muscarinic receptor, the maximum response (Emax) was in the range of 25 to 100% and the “M1 Activity” value was “+++ (activity was measured to be less than 2.0 μM)”.

For the molecule `COCCOC(=O)N1CC[C@@H](CN2CCC3(CC2)CN(C(=O)N(C)C)c2ccccc23)C1` [compound 58], at M4 muscarinic receptor, the Emax lay in the range of 25 to 100% and the “M4 Activity” value is “+++ (activity was measured to be less than 2.0 μM)”. Moreover, on M1 muscarinic receptor, the Emax was in the range of 25 to 100% and the “M1 Activity” value was “++ (activity was measured to be from 2.0 μM to 10.0 μM)”.

On to `CCCOC(=O)N1CC[C@@H](CN2CCC3(CC2)CN(C(=O)N(C)C)c2ccccc23)C1` [compound 55], for which, on M4 muscarinic receptor, the maximum response (Emax) was in the range of 25 to 100% and the “M4 Activity” value was “+++ (activity was measured to be less than 2.0 μM)”. For the same molecule, on M1 muscarinic receptor, the maximal effect (Emax) was below 25% and the “M1 Activity” value is reported as “++ (activity was measured to be from 2.0 μM to 10.0 μM)”.

Turning to `CCCOC(=O)N1CCC(N2CCC3(CC2)CN(C(=O)N(C)C)c2ccccc23)CC1` [compound 40], at M4 muscarinic receptor, the Emax fell in the range of 25 to 100% and the “M4 Activity” value is “+++ (activity was measured to be less than 2.0 μM)”. Moreover, at M1 muscarinic receptor, the Emax lay in the range of 25 to 100% and the “M1 Activity” value is “+++ (activity was measured to be less than 2.0 μM)”.

For `Cc1nsc(N2C3CCC2CC(N2CCC4(CC2)CN(C(=O)N(C)C)c2ccccc24)C3)n1` (stereo not shown) [Compound No. 65, N,N-dimethyl-1′-(8-(3-methyl-1,2,4-thiadiazol-5-yl)-8-azabicyclo[3.2.1]octan-3-yl)spiro[indoline-3,4′-piperidine]-1-carboxamide], on M4 muscarinic receptor, the Emax was in the range of 25 to 100% and the “M4 Activity” value is given as “+++ (activity was measured to be less than 2.0 μM)”. Also, at M1 muscarinic receptor, the Emax fell in the range of 25 to 100% and the “M1 Activity” value is recorded as “+++ (activity was measured to be less than 2.0 μM)”.

Take `COC(=O)N1C2CCC1CC(N1CCC3(CCN(C(=O)N(C)C)c4ccccc43)CC1)C2` (stereo not shown) [compound 26]: at M4 muscarinic receptor, the Emax was in the range of 25 to 100% and the “M4 Activity” value is “+++ (activity was measured to be less than 2.0 μM)”. In addition, at M1 muscarinic receptor, the Emax fell in the range of 25 to 100% and the “M1 Activity” value is recorded as “++ (activity was measured to be from 2.0 μM to 10.0 μM)”.

For `COC(=O)N1CCC(N2CCC3(CCN(C(=O)N(C)C)c4ccccc43)CC2)CC1` [compound 2], at M4 muscarinic receptor, the Emax lay in the range of 25 to 100% and the “M4 Activity” value is given as “+++ (activity was measured to be less than 2.0 μM)”. In addition, at M1 muscarinic receptor, the Emax is 25 to 100% and the “M1 Activity” value was “+++ (activity was measured to be less than 2.0 μM)”.

For `CC#CCOC(=O)N1CC[C@@H](CN2CCC3(CC2)CN(C(=O)N(C)C)c2ccccc23)C1` [compound 98], at M4 muscarinic receptor, the Emax was 25 to 100% and the “M4 Activity” value is recorded as “+++ (activity was measured to be less than 2.0 μM)”. On M1 muscarinic receptor, the Emax lay within 25 to 100% and the “M1 Activity” value is recorded as “+++ (activity was measured to be less than 2.0 μM)”.

Consider `CN(C)C(=O)N1CC2(CCN(C3CCN(c4ncns4)CC3)CC2)c2ccccc21` [compound 75], for which, at M4 muscarinic receptor, the Emax lay in the range of 25 to 100% and the “M4 Activity” value was “+++ (activity was measured to be less than 2.0 μM)”. Further, at M1 muscarinic receptor, the Emax lay within 25 to 100% and the “M1 Activity” value is recorded as “++ (activity was measured to be from 2.0 μM to 10.0 μM)”.

For the molecule `CN(C)C(=O)N1CCC2(CCN(C3CC4CCC(C3)N4c3cnccn3)CC2)c2ccccc21` (stereo not shown) [compound 30], on M4 muscarinic receptor, the maximal response (Emax) lay in the range of 25 to 100% and the “M4 Activity” value is given as “+++ (activity was measured to be less than 2.0 μM)”. Besides, at M1 muscarinic receptor, the maximal effect (Emax) was 25 to 100% and the “M1 Activity” value was “+++ (activity was measured to be less than 2.0 μM)”.

Turning to `CCC#CCOC(=O)N1CC[C@H](CN2CCC3(CC2)CN(C(=O)N(C)C)c2ccccc23)C1` [compound 102], on M4 muscarinic receptor, the Emax is above 100% and the “M4 Activity” value is “+++ (activity was measured to be less than 2.0 μM)”. In addition, at M1 muscarinic receptor, the maximal response (Emax) is 25 to 100% and the “M1 Activity” value was “+++ (activity was measured to be less than 2.0 μM)”.

As to `CC#CCOC(=O)N1CC[C@H](CN2CCC3(CC2)CN(C(=O)N(C)C)c2ccccc23)C1` [compound 101], on M4 muscarinic receptor, the Emax was above 100% and the “M4 Activity” value is given as “+++ (activity was measured to be less than 2.0 μM)”. Also, at M1 muscarinic receptor, the Emax was in the range of 25 to 100% and the “M1 Activity” value is on record as “+++ (activity was measured to be less than 2.0 μM)”.

With `Cc1nsc(N2CC[C@@H](CN3CCC4(CC3)CN(C(=O)N(C)C)c3ccccc34)C2)n1` [compound 85], on M4 muscarinic receptor, the Emax was above 100% and the “M4 Activity” value was “+++ (activity was measured to be less than 2.0 μM)”. On M1 muscarinic receptor, the maximal effect (Emax) lay in the range of 25 to 100% and the “M1 Activity” value was “+++ (activity was measured to be less than 2.0 μM)”.

`CN(C)C(=O)N1CC2(CCN(C[C@@H]3CCN(C(=O)OC4CCOC4)C3)CC2)c2ccccc21` (stereo partly shown) [compound 110]: on M4 muscarinic receptor, the Emax is below 25% and the “M4 Activity” value is “++ (activity was measured to be from 2.0 μM to 10.0 μM)”. Further, on M1 muscarinic receptor, the Emax was below 25% and the “M1 Activity” value is listed as “++ (activity was measured to be from 2.0 μM to 10.0 μM)”.

Turning to `CC#CCOC(=O)N1C2CCC1CC(N1CCC3(CC1)CN(C(=O)N(C)C)c1ccccc13)C2` (stereo not shown) [compound 95], at M4 muscarinic receptor, the maximal effect (Emax) lay in the range of 25 to 100% and the “M4 Activity” value is “+++ (activity was measured to be less than 2.0 μM)”. Also, on M1 muscarinic receptor, the Emax was in the range of 25 to 100% and the “M1 Activity” value is “+++ (activity was measured to be less than 2.0 μM)”.

Turning to `Cc1ncc(N2CC[C@H](CN3CCC4(CC3)CN(C(=O)N(C)C)c3ccccc34)C2)nc1C` [compound 87], at M4 muscarinic receptor, the Emax lay within 25 to 100% and the “M4 Activity” value is given as “+++ (activity was measured to be less than 2.0 μM)”. Moreover, on M1 muscarinic receptor, the Emax is below 25% and the “M1 Activity” value was “+ (activity was measured to be greater than 10.0 μM)”.

With `COC(=O)N1CCC(N2CCC3(CCN(C(C)=O)c4ccccc43)CC2)CC1` [compound 10], at M4 muscarinic receptor, the Emax was in the range of 25 to 100% and the “M4 Activity” value is recorded as “+++ (activity was measured to be less than 2.0 μM)”. Besides, on M1 muscarinic receptor, the Emax fell in the range of 25 to 100% and the “M1 Activity” value is “+++ (activity was measured to be less than 2.0 μM)”.

`CCOC(=O)N1CCC(N2CCC3(CCN(C(=O)N(C)C)c4ccccc43)CC2)CC1` [compound 3]: on M4 muscarinic receptor, the maximal response (Emax) is above 100% and the “M4 Activity” value is given as “+++ (activity was measured to be less than 2.0 μM)”. In addition, on M1 muscarinic receptor, the Emax lay within 25 to 100% and the “M1 Activity” value is given as “+++ (activity was measured to be less than 2.0 μM)”.

As to `CN(C)C(=O)N1CCC2(CCN(C3CCNCC3)CC2)c2ccccc21` [compound 33], at M4 muscarinic receptor, the Emax was below 25% and the “M4 Activity” value is “+ (activity was measured to be greater than 10.0 μM)”. In addition, on M1 muscarinic receptor, the Emax is below 25% and the “M1 Activity” value is recorded as “+ (activity was measured to be greater than 10.0 μM)”.

As for `CCOC(=O)N1CC[C@H](CN2CCC3(CC2)CN(C(=O)N(C)C)c2ccccc23)C1` [compound 60], at M4 muscarinic receptor, the maximal effect (Emax) was in the range of 25 to 100% and the “M4 Activity” value is recorded as “+++ (activity was measured to be less than 2.0 μM)”. Besides, at M1 muscarinic receptor, the Emax is 25 to 100% and the “M1 Activity” value is listed as “+++ (activity was measured to be less than 2.0 μM)”.

Take `CC(=O)N1CCC2(CCN(C3CCN(c4nc(C)cs4)CC3)CC2)c2ccccc21` [compound 25]: on M4 muscarinic receptor, the Emax is 25 to 100% and the “M4 Activity” value is reported as “++ (activity was measured to be from 2.0 μM to 10.0 μM)”. In addition, at M1 muscarinic receptor, the Emax fell in the range of 25 to 100% and the “M1 Activity” value is listed as “++ (activity was measured to be from 2.0 μM to 10.0 μM)”.
